How the values were obtained:
Test in all cases: biochemical
Parameters in all cases: KinomeScan competition binding panel (DiscoveRx), percent of control at 1 uM
Conditions in all cases: read-out: Percent Control
DRAK2 = molecular target: T1, DRAK2 (Homo sapiens, UniProt O94768)
T1 construct: gene STK17B
Source text: (§1) In order to further confirm the binding mode, we then tested the compounds in the BTK wild-type (wt) and BTK C481S mutant with immunoblotting by looking at the BTK Y551 auto-phosphorylation. […] In addition, a covalent bond was preferred to form between the […] acrylamide and Cys-481 near the hinge binding area, which further confirmed its irreversible binding mode (Fig. 1d). We next investigated CHMFL-BTK-11′s selectivity profile in 456 kinases/mutants with KinomeScan^TM technology.

BRSK1 = BRSK1 (Homo sapiens, UniProt Q8TDC3)
Source text: as §1

CHEK2 = CHEK2 (Homo sapiens, UniProt O96017)
Source text: as §1

ROS1 = ROS1 (Homo sapiens, UniProt P08922)
Source text: as §1

DCAMKL2 = molecular target: T2, DCAMKL2 (Homo sapiens, UniProt Q8N568)
T2 construct: gene DCLK2
Source text: as §1

PIK3CA = PIK3CA (Homo sapiens, UniProt P42336)
Source text: as §1

AKT3 = AKT3 (Homo sapiens, UniProt Q9Y243)
Source text: as §1

DMPK2 = molecular target: T3, DMPK2 (Homo sapiens, UniProt Q6DT37)
T3 construct: gene CDC42BPG
Source text: as §1

AAK1 = AAK1 (Homo sapiens, UniProt Q2M2I8)
Source text: as §1

ADCK4 = molecular target: T4, ADCK4 (Homo sapiens, UniProt Q96D53)
T4 construct: gene COQ8B
Source text: as §1

FLT3(K663Q) = FLT3(K663Q) (Homo sapiens, UniProt P36888, K663Q)
Source text: as §1

MET(Y1235D) = MET(Y1235D) (Homo sapiens, UniProt P08581, Y1235D)
Source text: as §1

[1] = molecular target: T5, ABL1(F317I)-nonphosphorylated (Homo sapiens, UniProt P00519, F317I)
T5 construct: nonphosphorylated
Source text: as §1

DDR1 = DDR1 (Homo sapiens, UniProt Q08345)
Source text: as §1

SNARK = molecular target: T6, SNARK (Homo sapiens, UniProt Q9H093)
T6 construct: gene NUAK2
Source text: as §1

LTK = LTK (Homo sapiens, UniProt P29376)
Source text: as §1

PIK3CA(M1043I) = PIK3CA(M1043I) (Homo sapiens, UniProt P42336, M1043I)
Source text: as §1

PIM1 = PIM1 (Homo sapiens, UniProt P11309)
Source text: as §1

STK35 = STK35 (Homo sapiens, UniProt Q8TDR2)
Source text: as §1

PKAC-alpha = molecular target: T7, PKAC-alpha (Homo sapiens, UniProt P17612)
T7 construct: gene PRKACA
Source text: as §1

ERBB2 = ERBB2 (Homo sapiens, UniProt P04626)
Source text: as §1

ERK8 = molecular target: T8, ERK8 (Homo sapiens, UniProt Q8TD08)
T8 construct: gene MAPK15
Source text: as §1

SRPK2 = SRPK2 (Homo sapiens, UniProt P78362)
Source text: as §1

BRK = molecular target: T9, BRK (Homo sapiens, UniProt Q13882)
T9 construct: gene PTK6
Source text: as §1

PRKG2 = PRKG2 (Homo sapiens, UniProt Q13237)
Source text: as §1

T2 sequence (Q8N568 whole entry): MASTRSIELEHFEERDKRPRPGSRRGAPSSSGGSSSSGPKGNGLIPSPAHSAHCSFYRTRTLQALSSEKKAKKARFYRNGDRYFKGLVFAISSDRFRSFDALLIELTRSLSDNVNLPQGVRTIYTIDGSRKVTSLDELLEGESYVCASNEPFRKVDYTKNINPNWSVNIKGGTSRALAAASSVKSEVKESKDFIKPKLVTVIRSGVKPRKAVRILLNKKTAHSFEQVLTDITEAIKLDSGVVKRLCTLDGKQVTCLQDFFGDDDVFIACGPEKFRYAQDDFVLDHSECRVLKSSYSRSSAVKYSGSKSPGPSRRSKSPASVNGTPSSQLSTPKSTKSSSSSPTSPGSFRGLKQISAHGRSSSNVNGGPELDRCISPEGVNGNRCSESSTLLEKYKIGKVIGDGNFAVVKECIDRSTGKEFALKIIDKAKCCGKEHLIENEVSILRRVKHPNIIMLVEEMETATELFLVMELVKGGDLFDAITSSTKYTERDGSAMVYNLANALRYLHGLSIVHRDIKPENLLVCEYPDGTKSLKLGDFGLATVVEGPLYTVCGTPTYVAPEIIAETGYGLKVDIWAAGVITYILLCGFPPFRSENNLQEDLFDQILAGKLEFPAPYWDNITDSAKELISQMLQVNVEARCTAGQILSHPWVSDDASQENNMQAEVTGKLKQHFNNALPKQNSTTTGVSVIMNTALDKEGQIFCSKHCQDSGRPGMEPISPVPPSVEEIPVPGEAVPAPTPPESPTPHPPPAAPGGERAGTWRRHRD
Chain of LTK (P29376 whole entry): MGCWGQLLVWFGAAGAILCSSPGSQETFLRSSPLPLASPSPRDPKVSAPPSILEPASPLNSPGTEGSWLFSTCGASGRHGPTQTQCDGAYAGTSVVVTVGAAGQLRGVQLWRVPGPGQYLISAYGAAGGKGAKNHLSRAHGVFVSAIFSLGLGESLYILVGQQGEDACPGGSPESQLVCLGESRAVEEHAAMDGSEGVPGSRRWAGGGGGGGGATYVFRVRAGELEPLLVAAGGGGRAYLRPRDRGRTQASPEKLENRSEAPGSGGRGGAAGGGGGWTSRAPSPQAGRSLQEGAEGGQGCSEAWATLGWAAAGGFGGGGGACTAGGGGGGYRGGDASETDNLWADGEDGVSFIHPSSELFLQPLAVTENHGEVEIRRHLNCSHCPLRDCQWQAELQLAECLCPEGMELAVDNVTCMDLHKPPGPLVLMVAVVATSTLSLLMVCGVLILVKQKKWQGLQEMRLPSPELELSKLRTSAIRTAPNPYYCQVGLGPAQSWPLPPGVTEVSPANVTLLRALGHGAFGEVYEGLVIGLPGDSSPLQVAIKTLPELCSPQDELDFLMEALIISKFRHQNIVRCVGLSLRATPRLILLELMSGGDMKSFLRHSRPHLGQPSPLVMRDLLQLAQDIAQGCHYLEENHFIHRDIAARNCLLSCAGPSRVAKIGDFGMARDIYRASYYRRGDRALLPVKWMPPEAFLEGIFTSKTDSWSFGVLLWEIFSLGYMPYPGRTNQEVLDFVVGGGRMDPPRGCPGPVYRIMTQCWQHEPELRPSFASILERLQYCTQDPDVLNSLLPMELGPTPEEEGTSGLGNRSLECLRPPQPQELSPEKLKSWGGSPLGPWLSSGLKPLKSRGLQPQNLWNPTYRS
Chain of DDR1 (Q08345 whole entry): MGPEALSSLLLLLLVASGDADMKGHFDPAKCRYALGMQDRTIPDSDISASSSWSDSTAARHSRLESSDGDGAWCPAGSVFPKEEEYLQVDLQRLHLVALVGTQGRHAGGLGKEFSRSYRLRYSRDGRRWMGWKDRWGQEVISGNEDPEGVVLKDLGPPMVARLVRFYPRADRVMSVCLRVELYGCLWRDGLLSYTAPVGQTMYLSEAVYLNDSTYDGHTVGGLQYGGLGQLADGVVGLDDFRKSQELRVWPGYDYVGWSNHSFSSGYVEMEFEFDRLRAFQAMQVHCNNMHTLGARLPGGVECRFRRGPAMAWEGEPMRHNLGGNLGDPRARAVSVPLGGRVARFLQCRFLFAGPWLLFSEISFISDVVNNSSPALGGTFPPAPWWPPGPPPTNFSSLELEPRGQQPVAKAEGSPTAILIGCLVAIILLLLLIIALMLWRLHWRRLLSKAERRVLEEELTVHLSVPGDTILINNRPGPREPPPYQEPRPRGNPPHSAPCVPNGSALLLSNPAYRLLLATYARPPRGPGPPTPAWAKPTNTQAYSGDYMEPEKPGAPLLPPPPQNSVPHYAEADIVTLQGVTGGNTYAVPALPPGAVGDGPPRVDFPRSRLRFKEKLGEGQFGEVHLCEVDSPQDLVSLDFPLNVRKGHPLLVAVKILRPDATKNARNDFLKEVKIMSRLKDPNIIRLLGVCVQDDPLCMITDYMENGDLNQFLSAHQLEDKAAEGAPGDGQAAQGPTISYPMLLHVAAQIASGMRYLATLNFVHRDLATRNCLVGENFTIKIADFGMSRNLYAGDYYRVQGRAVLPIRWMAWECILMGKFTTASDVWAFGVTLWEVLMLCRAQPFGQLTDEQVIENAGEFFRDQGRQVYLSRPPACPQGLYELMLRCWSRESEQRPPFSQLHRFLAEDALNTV
T4 sequence (Q96D53 whole entry): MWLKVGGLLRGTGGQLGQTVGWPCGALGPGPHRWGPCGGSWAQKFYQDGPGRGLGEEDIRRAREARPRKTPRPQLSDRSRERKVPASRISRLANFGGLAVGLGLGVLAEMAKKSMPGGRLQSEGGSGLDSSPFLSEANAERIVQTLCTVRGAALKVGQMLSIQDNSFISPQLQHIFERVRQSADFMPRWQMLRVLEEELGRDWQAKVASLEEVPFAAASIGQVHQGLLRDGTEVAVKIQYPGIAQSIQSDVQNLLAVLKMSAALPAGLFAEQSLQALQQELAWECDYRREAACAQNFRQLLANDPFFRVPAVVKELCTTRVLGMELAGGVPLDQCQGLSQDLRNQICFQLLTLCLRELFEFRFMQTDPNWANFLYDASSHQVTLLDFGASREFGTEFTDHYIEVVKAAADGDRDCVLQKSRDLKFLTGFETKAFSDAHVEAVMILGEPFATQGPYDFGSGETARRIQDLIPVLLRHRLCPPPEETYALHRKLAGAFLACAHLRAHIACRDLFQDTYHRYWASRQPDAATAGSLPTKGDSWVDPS
Chain of PIK3CA (P42336 whole entry): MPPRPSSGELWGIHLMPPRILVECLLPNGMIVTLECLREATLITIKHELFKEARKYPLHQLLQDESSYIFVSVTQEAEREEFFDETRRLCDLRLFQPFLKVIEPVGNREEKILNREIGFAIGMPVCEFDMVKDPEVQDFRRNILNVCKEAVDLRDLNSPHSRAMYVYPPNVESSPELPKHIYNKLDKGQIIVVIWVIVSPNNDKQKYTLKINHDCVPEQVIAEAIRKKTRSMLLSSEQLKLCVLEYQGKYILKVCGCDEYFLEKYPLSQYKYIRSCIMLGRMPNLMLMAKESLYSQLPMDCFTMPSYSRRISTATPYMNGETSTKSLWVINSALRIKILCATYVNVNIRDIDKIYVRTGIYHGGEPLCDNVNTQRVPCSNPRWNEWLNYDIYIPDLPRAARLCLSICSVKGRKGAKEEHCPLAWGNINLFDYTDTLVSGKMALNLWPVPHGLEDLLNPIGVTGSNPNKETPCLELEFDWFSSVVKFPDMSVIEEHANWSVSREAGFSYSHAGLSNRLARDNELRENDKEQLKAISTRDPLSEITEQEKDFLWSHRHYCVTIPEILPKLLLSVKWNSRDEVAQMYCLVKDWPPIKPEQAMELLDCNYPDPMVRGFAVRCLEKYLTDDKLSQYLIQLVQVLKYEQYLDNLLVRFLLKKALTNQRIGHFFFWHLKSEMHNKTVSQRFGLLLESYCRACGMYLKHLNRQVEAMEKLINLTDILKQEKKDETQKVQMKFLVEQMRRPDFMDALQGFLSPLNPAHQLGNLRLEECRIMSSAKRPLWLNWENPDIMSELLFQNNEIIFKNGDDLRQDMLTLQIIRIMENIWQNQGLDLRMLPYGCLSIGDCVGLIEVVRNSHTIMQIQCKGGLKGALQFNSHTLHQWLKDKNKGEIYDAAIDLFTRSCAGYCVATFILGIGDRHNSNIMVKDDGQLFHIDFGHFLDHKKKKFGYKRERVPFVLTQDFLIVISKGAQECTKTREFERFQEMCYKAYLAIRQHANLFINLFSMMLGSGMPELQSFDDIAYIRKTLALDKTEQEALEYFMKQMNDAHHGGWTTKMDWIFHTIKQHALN
Chain of CHEK2 (O96017 whole entry): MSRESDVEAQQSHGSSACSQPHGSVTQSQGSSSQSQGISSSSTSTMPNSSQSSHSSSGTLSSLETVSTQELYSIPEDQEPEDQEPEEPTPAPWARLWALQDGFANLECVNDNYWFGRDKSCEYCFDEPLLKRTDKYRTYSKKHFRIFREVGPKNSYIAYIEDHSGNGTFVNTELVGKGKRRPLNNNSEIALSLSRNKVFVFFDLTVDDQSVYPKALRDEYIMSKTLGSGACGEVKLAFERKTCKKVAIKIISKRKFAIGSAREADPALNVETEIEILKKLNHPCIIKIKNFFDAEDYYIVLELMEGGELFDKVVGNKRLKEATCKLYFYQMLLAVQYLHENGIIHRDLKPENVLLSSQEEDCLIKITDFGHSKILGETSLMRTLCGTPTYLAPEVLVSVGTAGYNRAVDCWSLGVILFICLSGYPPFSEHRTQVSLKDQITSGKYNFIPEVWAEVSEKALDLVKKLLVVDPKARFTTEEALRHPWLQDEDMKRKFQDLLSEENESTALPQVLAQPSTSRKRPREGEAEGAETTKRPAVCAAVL
Chain of PIK3CA(M1043I) (P42336 whole entry M1043I): as the sequence (P42336 whole entry) above, with M1043I counted along it
Chain of PIM1 (P11309 whole entry): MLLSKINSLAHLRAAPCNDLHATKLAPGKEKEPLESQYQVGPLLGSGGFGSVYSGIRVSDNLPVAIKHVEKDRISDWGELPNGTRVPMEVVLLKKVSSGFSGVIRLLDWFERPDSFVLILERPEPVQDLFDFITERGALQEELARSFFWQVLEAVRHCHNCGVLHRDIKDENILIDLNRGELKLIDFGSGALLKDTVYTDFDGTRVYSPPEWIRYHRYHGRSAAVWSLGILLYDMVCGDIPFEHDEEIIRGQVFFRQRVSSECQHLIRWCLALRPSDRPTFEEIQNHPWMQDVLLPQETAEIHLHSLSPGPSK

Compound: C=CC(=O)Nc1cc(-n2c(=O)ccc3cnc4ccc(-n5cccn5)cc4c32)ccc1C [CHMFL-BTK-11]
- remaining binding at 1 µM (DRAK2): 95%
- remaining binding at 1 µM (BRSK1): 100%
- remaining binding at 1 µM (CHEK2): 100%
- remaining binding at 1 µM (ROS1): 94%
- remaining binding at 1 µM (DCAMKL2): 100%
- remaining binding at 1 µM (PIK3CA): 100%
- remaining binding at 1 µM (AKT3): 100%
- remaining binding at 1 µM (DMPK2): 99%
- remaining binding at 1 µM (AAK1): 62%
- remaining binding at 1 µM (ADCK4): 100%
- remaining binding at 1 µM (FLT3(K663Q)): 100%
- remaining binding at 1 µM (MET(Y1235D)): 100%
- remaining binding at 1 µM [1]: 100%
- remaining binding at 1 µM (DDR1): 100%
- remaining binding at 1 µM (SNARK): 90%
- remaining binding at 1 µM (LTK): 100%
- remaining binding at 1 µM (PIK3CA(M1043I)): 99%
- remaining binding at 1 µM (PIM1): 82%
- remaining binding at 1 µM (STK35): 100%
- remaining binding at 1 µM (PKAC-alpha): 98%
- remaining binding at 1 µM (ERBB2): 98%
- remaining binding at 1 µM (ERK8): 99%
- remaining binding at 1 µM (SRPK2): 100%
- remaining binding at 1 µM (BRK): 100%
- remaining binding at 1 µM (PRKG2): 98%
